Measured values: patent US6809181B2, “Human beta-defensin-3 (HBD-3), a highly cationic beta-defensin antimicrobial peptide” (University of Iowa Research Foundation, priority 2000, dated 2004)
Values after ≈ are worked out from the molar mass of the structure shown.

Key:
Ureaplasma urealyticum = conditions: n=19, r143, cited from earlier work
Staphylococcus aureus = conditions: n=100, r142, cited from earlier work
Mycoplasma pneumoniae = conditions: n=11, r141, cited from earlier work
Mycoplasma hominis = conditions: n=28, r140, cited from earlier work
[1] = test system: HBD-3 mRNA expression in fetal lung explants; test: RT-PCR of HBD-3 mRNA in fetal lung explants; type: cell-based, human; conditions: 100 ng/ml IL-1β for 24 h
[2] = test system: HBD-3 mRNA expression in cultured gingival keratinocytes; test: RT-PCR of HBD-3 mRNA in cultured gingival keratinocytes; type: cell-based, human; conditions: 100 ng/ml IL-1β for 24 h

## CCC[C@@H]1C[C@@H](C(=O)N[C@@H]([C@H]2O[C@H](SC)[C@H](O)[C@@H](O)[C@H]2O)[C@@H](C)O)N(C)C1 [LINCOMYCIN, lincomycin]
Ureaplasma urealyticum
  Range: 64-128
Ureaplasma urealyticum; unit assumed
  MIC50: 128 µg/mL (≈ 315 µM)
  MIC90: 128 µg/mL (≈ 315 µM)
Staphylococcus aureus
  Range: 0.5-512
Staphylococcus aureus; unit assumed
  MIC50: 1 µg/mL (≈ 2.46 µM)
  MIC90: 1 µg/mL (≈ 2.46 µM)
Mycoplasma pneumoniae
  Range: 2-32
Mycoplasma pneumoniae; unit assumed
  MIC50: 8 µg/mL (≈ 19.7 µM)
  MIC90: 32 µg/mL (≈ 78.7 µM)
Mycoplasma hominis
  Range: 0.5-16
Mycoplasma hominis; unit assumed
  MIC50: 2 µg/mL (≈ 4.92 µM)
  MIC90: 4 µg/mL (≈ 9.84 µM)

## IL-1β: IL-1β (R & D Systems), pro-inflammatory stimulus used at 100 ng/ml to induce HBD-3 mRNA expression
[1]
  HBD-3 mRNA expression: increased markedly
[2]
  HBD-3 mRNA expression: increased markedly
